Test results as given in patent publication US20180344715A1, “WNT/BETA-CATENIN SIGNAL TRANSDUCTION INHIBITORS AND THEIR USE IN TREATMENT OR PREVENTION OF DISEASES AND CONDITIONS LINKED WITH SAID TRANSDUCTION” (BERGEN TEKNOLOGIOVERFORING AS, priority 2015, published 2018).

How the values were obtained:
[1] = tested on: SW480 cells; experiment: EdU label release assay, SW480; type: cell-based; conditions: SW480, 5 μM, 3 days; never found in control cells
Experimental: Two days later, cells were seeded singly onto 12 mm glass coverslips in 24-well plates. One day after, EdU was detected using the Click-iT® Plus EdU Alexa Fluor 488 Imaging Kit (Life Technologies, C10637) according to the manufacturer's protocol. For double staining of EdU and other proteins, the EdU stained cells were further used for immunofluorescence staining as described above. Intensity of EdU staining in paired cells were quantified by Photoshop CS6 software, unequal EdU distribution was considered when paired cells had intensity ratio higher than 2.

[2] = tested on: transgenic zebrafish; experiment: Tailfin regeneration assay in adult TCF-GFP transgenic zebrafish; conditions: 5 μM
[3] = molecular target: T1, SHPRH (Homo sapiens, UniProt Q149N8); experiment: Cellular thermal shift assay (CETSA), SHPRH; type: binding; conditions: SW480, 10 μM
T1 construct: endogenous in cells; host or cells: SW480
T1 sequence (Q149N8 whole entry): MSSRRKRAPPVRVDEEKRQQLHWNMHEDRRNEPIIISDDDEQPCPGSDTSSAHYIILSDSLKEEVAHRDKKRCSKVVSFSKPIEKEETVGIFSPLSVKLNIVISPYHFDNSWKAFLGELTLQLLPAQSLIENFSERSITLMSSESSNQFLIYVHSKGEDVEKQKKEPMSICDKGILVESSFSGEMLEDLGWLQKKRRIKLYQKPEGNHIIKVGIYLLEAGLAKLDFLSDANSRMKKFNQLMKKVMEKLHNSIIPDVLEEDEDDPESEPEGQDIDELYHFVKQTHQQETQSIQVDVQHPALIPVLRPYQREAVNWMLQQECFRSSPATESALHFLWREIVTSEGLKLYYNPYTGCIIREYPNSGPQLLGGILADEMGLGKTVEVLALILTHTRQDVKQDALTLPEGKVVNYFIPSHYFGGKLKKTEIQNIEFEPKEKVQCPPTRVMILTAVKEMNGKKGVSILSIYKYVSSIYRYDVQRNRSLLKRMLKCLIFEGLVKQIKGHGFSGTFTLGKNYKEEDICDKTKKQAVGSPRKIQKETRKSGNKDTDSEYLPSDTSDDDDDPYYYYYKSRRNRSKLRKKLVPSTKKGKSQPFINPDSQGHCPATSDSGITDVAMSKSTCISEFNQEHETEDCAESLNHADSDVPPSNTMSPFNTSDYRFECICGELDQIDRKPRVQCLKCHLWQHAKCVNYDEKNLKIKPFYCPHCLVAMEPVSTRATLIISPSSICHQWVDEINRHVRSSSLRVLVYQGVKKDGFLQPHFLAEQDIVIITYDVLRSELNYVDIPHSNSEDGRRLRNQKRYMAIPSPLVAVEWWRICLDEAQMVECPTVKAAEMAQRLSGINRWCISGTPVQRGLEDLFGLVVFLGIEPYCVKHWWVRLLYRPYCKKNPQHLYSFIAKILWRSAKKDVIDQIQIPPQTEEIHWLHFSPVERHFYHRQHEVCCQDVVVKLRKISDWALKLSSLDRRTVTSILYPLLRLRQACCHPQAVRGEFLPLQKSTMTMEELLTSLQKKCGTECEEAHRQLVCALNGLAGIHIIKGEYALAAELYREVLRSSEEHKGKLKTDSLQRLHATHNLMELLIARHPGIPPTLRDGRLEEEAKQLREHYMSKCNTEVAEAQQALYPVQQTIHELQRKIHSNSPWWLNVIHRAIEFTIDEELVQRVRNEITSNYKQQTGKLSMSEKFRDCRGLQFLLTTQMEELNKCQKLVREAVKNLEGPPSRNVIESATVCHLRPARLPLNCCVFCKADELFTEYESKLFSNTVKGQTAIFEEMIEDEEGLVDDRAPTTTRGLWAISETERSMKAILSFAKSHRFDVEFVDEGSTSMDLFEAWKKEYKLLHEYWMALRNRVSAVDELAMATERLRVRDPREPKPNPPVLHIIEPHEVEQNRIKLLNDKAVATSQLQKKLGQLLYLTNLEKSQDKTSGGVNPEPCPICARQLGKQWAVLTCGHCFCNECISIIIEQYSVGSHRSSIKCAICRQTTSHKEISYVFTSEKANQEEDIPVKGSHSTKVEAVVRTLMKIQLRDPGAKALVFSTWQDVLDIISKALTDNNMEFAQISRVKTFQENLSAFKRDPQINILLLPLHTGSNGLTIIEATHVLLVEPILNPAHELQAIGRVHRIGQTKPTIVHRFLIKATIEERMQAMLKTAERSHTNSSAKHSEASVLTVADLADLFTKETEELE
Experimental: CETSA in intact cells was performed according to the protocol previously described (Martinez Molina, D. et al., 2013, Science 341, 84-87). Briefly, SW480 cells were seeded equally in 2 T75 flasks and allowed to reach 80% confluence one day after. […] After trypsinization and PBS wash, cells were resuspended in 450 μl PBS containing freshly added protease inhibitors and equally divided between 7 tubes. Cells in each tube were heated at indicated temperatures for 3 minutes and kept at room temperature for 3 minutes. Heated cells were lysed by 3 cycles of freezing in liquid nitrogen (1 minute) and thawing in room temperature water (1 minute). The cell lysates were centrifuged at 20,000 g for 20 minutes at 4° C. The soluble fractions were isolated for Western blotting analysis.

[4] = tested on: Wnt target genes; experiment: RT-PCR of Wnt target genes in 293FT cells; type: cell-based, human; conditions: 24 hours
From the text: Reverse transcription (RT) and real-time quantitative PCR (qPCR) were done as previously described (Ke, X. S. et al., 2011, Exp Cell Res 317, 234-247). For qPCR using TagMan Universal PCR Master Mix (Life technologies, 4304437), TagMan assays used for human AXIN2 (Hs00610344_m1), LEF1 (Hs01547250_m1), BMP4 (Hs03676628_s1), CTNNB1 (Hs01076483_m1), VEGFR1 (Hs01052961_m1), MED23 (Hs00606608_m1), SHPRH (Hs00542737_m1) and ACTB1 (Hs99999903_m1) were obtained from Life technologies. For RT-PCR using RT^2 SYBR Green/ROX PCR Master Mix (QIAGEN, 330520), primer oligos were made by Eurogentec (Liege, Belgium).

[5] = tested on: β-catenin; experiment: In vivo ubiquitination assay in SW480 cells; type: cell-based; conditions: SW480, with proteasome inhibitor MG132, 6 hours
Experimental: Cells were harvested and re-suspended with 100 μl ice cold TBS (50 mM Tris-HCL pH 8.0, 150 mM NaCl) containing 2 μM N-Ethylmaleimide crystalline that was supplemented to all the following buffers. After adding 120 μl TBS containing 2% SDS and mixing quickly, cells were heated at 98° C. for 10 minutes and placed immediately on ice for 5 minutes. Cell lysates were incubated with 1.8 ml TBS containing 1% Triton X-100 and 3 μg antibody (β-catenin ab22656, clone 12F7, Abcam; SHPRH, ab80129, Abcam), at 4° C. overnight followed by incubation with 100 μl Protein G beads (Life technologies, 10004D) at 4° C. for 1 hour on rotator. Beads were collected with Magnet and serially washed once with 1 ml TBS containing 1% Triton X-100/0.1% SDS, twice with 1 ml TBS containing 0.5M LiCl and once with 1 ml TBS containing 1% Triton X-100. Following addition of 80 μl 2% SDS sample buffer containing 10 mM DTT (Sigma, D9779), the beads were boiled at 98° C. for 5 minutes and collected with Magnet, the supernatant was analyzed by Western blotting.

Compound: CNC(=O)c1ccccc1Sc1ccc2c(/C=C/c3ccccn3)n[nH]c2c1 [axitinib, N-Methyl-2-[[3-[(E)-2-pyridin-2-ylethenyl]-1H-indazol-6-yl]sulfanyl]benzamide]
- cells with unequal EdU labelling (EdU ACD) [1]: around 15%
- tailfin regrowth and TCF-GFP activation ([2]; 6 consecutive days): completely inhibited
- intestine: crypt-villus architecture and incorporation of BrdU ([2]; 6 days): no significant change
- direct binding in intact living cells [3]: confirmed
- mRNA levels of Wnt target genes [4]: decreases
- ubiquitination of β-catenin [5]: increased its ubiquitination
